“And” between values parts separate entries of the source, which are not always exact repeats. Identical values can stand only once.
Experiments:
Format in all cases: cell-based
[1] = target: T1, MRGPRX4 (S83) (Homo sapiens, UniProt Q96LA9, L83S); experiment: EC50 determination, intracellular calcium mobilization in MRGPRX4 stably expressed HEK293 cells (FLIPR Calcium 5, Flexstation-3); parameters: Fig. 1D dose-response, calcium mobilization response (individual replicate) / calcium mobilization response (Fig. 1D dose-response raw data): unit not given here
T1 construct: expressed in transfected cells
Method: HEK293 cells and MRGPRX4 stably expressed HEK293 cells were seeded in 100 μl culture media on 96-well plates at a density of 40,000 cells per well and incubated overnight. The next day, the media were replaced with a dye-loading solution from the FLIPR Calcium 5 assay kit (Molecular Devices), diluted in Hank's Balanced Salt Solution (HBSS) with 20 mM HEPES, pH 7.4. After 1 h of incubation at 37°C, cells were allowed to recover for 10 min in the dark at room temperature prior to performing intracellular calcium mobilization assay in a Flexstation-3 instrument with SoftMax®Pro 7.1 software (Molecular Devices). Serial concentrations of tested drugs were prepared in HBSS/HEPES solution at 3X concentration. […] Compounds were tested in triplicates and the signals were averaged. Responses were determined by subtracting the minimum signal (at the baseline before adding the drug) from the maximum signal (obtained after drug stimulation). Four-parameter logistic (4PL) curve fit was used to plot the dose-response curves. […] Both dose-response curve fitting and EC50s calculation are computed with GraphPad Prism software (version: 6.o or above).

[2] = target: MRGPRX4 WT (S83) (Homo sapiens, UniProt Q96LA9, L83S); experiment: PRESTO-Tango β-arrestin recruitment assay, HTLA cells stably expressing WT (S83) MRGPRX4; parameters: expressed in transfected cells; conditions: HTLA::MRGPRX4
Method: HTLA cells, a cell line derived from HEK293 and engineered to stably express a tTA-dependent luciferase reporter and a β-arrestin2-TEV fusion gene, were generously provided by Richard Axel's laboratory. HTLA cells were cultured in growth medium containing 2 μg/ml puromycin and 100 μg/ml hygromycin B in 5% CO2 at 37 °C. Stably MRGPRX4-expressing HTLA cells were generated by transfecting pcDNA3.1(+)-Zeo containing MRGPRX4-Tango construct (either with WT or S83L mutant sequence) into HTLA cells with Lipofectamine 3000 and selecting the successful transfected clones with Zeocin.
HTLA cells stably expressing either WT or S83L MRGPRX4 were seeded in PDL-coated 96-well white clear bottom cell culture plates with DMEM containing 10% FBS, at a density of 35,000 cells per well and were allowed to attach to the bottom of the wells overnight. The next day, growth medium was replaced with 100 μl of serum-free medium containing the tested drugs at various concentrations, and the cells were then incubated at 37°C for 24 h. On the following day, media with drug solutions was removed and 50 μl per well of Bright-Glo™ Reagent from Bright-Glo™ Luciferase Assay System (Promega) was loaded. The plate was incubated at room temperature in the dark for 5 min, and the relative luminescence units were measured using the Flexstation-3 instrument with SoftMax®Pro 7.1 software (Molecular Devices). Dose response curves and EC50s were analyzed as described above.
Data are from at least two independent experiments, each performed in
triplicate, and are depicted as mean ± SEM.
arrestin2-TEV fusion gene and a tTA -dependent luciferase reporter.

[3] = system: HTLA cells; experiment: PRESTO-Tango β-arrestin recruitment assay, parental HTLA cells without MRGPRX4 (control, fig. S1)
Description: Supplement NIHMS2038790-supplement-table.xlsx, sheet "fig. S1" | column: Concentration (M)

Sequence of MRGPRX4 WT (S83) (Q96LA9 whole entry L83S, the tested form may be a part): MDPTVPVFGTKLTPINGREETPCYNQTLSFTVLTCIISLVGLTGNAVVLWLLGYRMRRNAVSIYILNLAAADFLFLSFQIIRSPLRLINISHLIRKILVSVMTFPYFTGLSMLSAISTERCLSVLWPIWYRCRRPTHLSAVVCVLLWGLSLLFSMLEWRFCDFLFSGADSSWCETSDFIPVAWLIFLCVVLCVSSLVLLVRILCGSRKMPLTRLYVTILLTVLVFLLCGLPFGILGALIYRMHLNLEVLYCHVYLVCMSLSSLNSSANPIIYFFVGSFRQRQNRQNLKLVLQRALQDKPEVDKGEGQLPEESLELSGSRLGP
T1 sequence (Q96LA9 whole entry L83S): as the sequence (Q96LA9 whole entry L83S, the tested form may be a part) above

C[C@@H]1C[C@H]2[C@@H]3CCC4=CC(=O)C=C[C@]4(C)[C@@]3(F)[C@@H](O)C[C@]2(C)[C@@]1(O)C(=O)CO [Dexamethasone]
Fig. 1D dose-response, calcium mobilization response (individual replicate) ([1]; Concentration 9.76563e-7 M): -21.027 and -38.068 and -44.01 and -38.887 and -46.292 and -51.601 and -47.998 and -19.021 and -24.245 | Fig. 1D dose-response, calcium mobilization response (individual replicate) ([1]; Concentration 1.95313e-6 M): -34.306 and -12.488 and -34.424 and -46.421 and -44.65 and -42.861 and -53.58 and -51.620 and -38.055 | Fig. 1D dose-response, calcium mobilization response (individual replicate) ([1]; Concentration 3.90625e-6 M): -45.647 and -46.32 and -35.376 and -38.61 and -34.811 and -45.234 and -56.373 and -60.668 and -3.309 | Fig. 1D dose-response, calcium mobilization response (individual replicate) ([1]; Concentration 7.8125e-6 M): -36.025 and -46.229 and -47.556 and -37.359 and -53.743 and -48.739 and -48.609 and -47.284 and -56.875 | Fig. 1D dose-response, calcium mobilization response (individual replicate) ([1]; Concentration 1.5625e-5 M): -54.866 and -50.537 and -42.313 and -47.552 and -53.2 and -55.3 and -57.812 and -33.441 and -66.652 | Fig. 1D dose-response, calcium mobilization response (individual replicate) ([1]; Concentration 3.125e-5 M): -56.076 and -45.2 and -44.531 and -46.041 and -46.006 and -58.081 and -60.475 and -59.746 and -11.251 | Fig. 1D dose-response, calcium mobilization response (individual replicate) ([1]; Concentration 6.25e-5 M): -51.427 and -36.666 and -43.901 and -55.62 and -42.251 and -57.261 and -57.456 and -8.995 and -73.787 | Fig. 1D dose-response, calcium mobilization response (individual replicate) ([1]; Concentration 0.00025 M): -40.896 and -34.789 and -49.545 and -32.204 and -28.295 and -45.507 and -42.773 and -53.155 and -37.185 | Fig. 1D dose-response, calcium mobilization response (individual replicate) ([1]; Concentration 0.0005 M): -3.046 and -9.71 and -33.403 and -15.448 and -3.273 and -16.368 and -26.248 and -13.645 and -6.391 | Fig. 1D dose-response, calcium mobilization response (individual replicate) ([1]; Concentration 0.001 M): -8.458 and -6.416 and -11.748 and -15.382 and -27.522 and -19.884 and -14.893 and -13.481 and -19.179 | PRESTO-Tango response (fig. S1), single replicate ([2]; concentration 9.77e-7 M): 0.05502 and 0.04613 and 0.0583 and 0.05727 and 0.00632 and 0.09586 | PRESTO-Tango response (fig. S1), single replicate ([2]; concentration 1.95e-6 M): 0.08603 and 0.06619 and 0.1004 and 0.1201 and 0.05846 and 0.07406 | PRESTO-Tango response (fig. S1), single replicate ([2]; concentration 0.000004 M): 0.0533 and 0.07958 and 0.05713 and 0.07013 and 0.1112 and 0.008646 | PRESTO-Tango response (fig. S1), single replicate ([2]; concentration 0.000008 M): 0.06153 and 0.0682 and 0.07104 and 0.08136 and 0.03922 and 0.08019 | PRESTO-Tango response (fig. S1), single replicate ([2]; concentration 3.13e-5 M): 0.0689 and 0.04671 and 0.04196 and 0.06207 and 0.03885 and 0.05666 | PRESTO-Tango response (fig. S1), single replicate ([2]; concentration 6.25e-5 M): 0.03211 and 0.04959 and 0.04067 and 0.02014 and 0.05174 and 0.05049 | PRESTO-Tango response (fig. S1), single replicate ([2]; concentration 0.00025 M): 0.07947 and 0.03843 and 0.03927 and 0.03864 and 0.06682 and 0.0517 | PRESTO-Tango response (fig. S1), single replicate ([2]; concentration 0.0005 M): 0.06213 and 0.03131 and 0.04202 and 0.04862 and 0.02625 and 0.06059 | PRESTO-Tango response (fig. S1), single replicate ([2]; concentration 0.001 M): 0.05095 and 0.05745 and 0.03908 and 0.09388 and 0.02339 and 0.03021 | PRESTO-Tango response (fig. S1), single replicate ([3]; concentration 9.77e-7 M): 0.004822 and 0.002858 and 0.001836 and 0.006042 and 0.003642 and 0.003121 | PRESTO-Tango response (fig. S1), single replicate ([3]; concentration 1.95e-6 M): 0.004669 and 0.01135 and 0.007279 and 0.01201 and 0.004751 and 0.007109 | PRESTO-Tango response (fig. S1), single replicate ([3]; concentration 0.000004 M): 0.004146 and 0.005626 and 0.002299 and 0.005155 and 0.007205 and 0.002627 | PRESTO-Tango response (fig. S1), single replicate ([3]; concentration 0.000008 M): 0.006851 and 0.005435 and 0.002472 and 0.006078 and 0.009879 and 0.006343 | PRESTO-Tango response (fig. S1), single replicate ([3]; concentration 3.13e-5 M): 0.004236 and 0.003572 and 0.004837 and 0.002213 and 0.004661 and 0.004714 | PRESTO-Tango response (fig. S1), single replicate ([3]; concentration 6.25e-5 M): 0.00398 and 0.007183 and 0.008495 and 0.006729 and 0.001521 and 0.004353 | PRESTO-Tango response (fig. S1), single replicate ([3]; concentration 0.00025 M): 0.001595 and 0.004197 and 0.004126 and 0.004268 and 0.000295 and 0.005991 | PRESTO-Tango response (fig. S1), single replicate ([3]; concentration 0.0005 M): 0.002985 and 0.003661 and 0.004712 and 0.003009 and 0.002249 and 0.001042 | PRESTO-Tango response (fig. S1), single replicate ([3]; concentration 0.001 M): 0.002207 and 0.002577 and 0.002201 and 0.000402 and 0.004573 and 0.000993

From article PMC11645656, “MRGPRX4 mediates phospho-drug associated pruritus in a humanized mouse model” (Science translational medicine, 2024)
